Data as given in patent US9931401B2, “Combination comprising anti-fibroblast growth factor receptor 2 (FGFR2) antibody and a tyrosine kinase inhibitor” (Daiichi Sankyo Company, Limited, priority 2013, dated 2018).
Entries after “also recorded” stand apart in the source; their conditions may differ.

How the values were obtained:
[1] = test system: human stomach cancer cell line SNU-16; experiment: In vivo combined use with AZD4547, SNU-16-transplanted nude mice; parameters: species or system nude mouse
Experimental: A human stomach cancer cell line SNU-16 (purchased from ATCC) was adjusted to 5×10^7 cells/mL with a 1:1 mixed solution of PBS and Matrigel (purchased from Nippon Becton Dickinson Company, Ltd.), and 0.1 mL of the cell suspension was subcutaneously transplanted to the axillary region of each nude mouse (CAnN.Cg-Foxnl^nu/CrlCrlj, female, 5 to 6 weeks old, purchased from Charles River Laboratories Japan Inc.). […] The major axis (mm) and minor axis (mm) of the tumor were measured over time using an electronic digital caliper (manufactured by Mitsutoyo Corp.). The tumor volume was calculated according to the following expression: Tumor volume (mm^3)=½×[Major axis of the tumor]×[Minor axis of the tumor]×[Minor axis of the tumor]
The antitumor effect was evaluated on the basis of the percentage of tumor growth inhibition (TGI %) at 21 days after transplantation (final assay day) according to the following expression: TGI (%)=(1−A/B)×100

SNU-16 cells = experiment: Amount of antigen FGFR2 on cell surface of SNU-16 treated with low-molecular compound (QIFIKIT); assay type: cell-based, human; settings: 100 to 1000 nM; compared with untreated or DMSO-treated SNU-16 cells
Experimental: This operation was repeated twice. […] The data was analyzed using Flowjo (manufactured by Tree Star Inc.).

[2] = test system: human stomach cancer cell line SNU-16; experiment: In vivo combined use with Ki23057, SNU-16-transplanted nude mice; parameters: species or system nude mouse; settings: in combination with hFR2-14_H19/L1 20 mg/kg
Experimental: A human stomach cancer cell line SNU-16 (purchased from ATCC) was adjusted to 5×10^7 cells/mL with a 1:1 mixed solution of PBS and Matrigel (purchased from Nippon Becton Dickinson Company, Ltd.), and 0.1 mL of the cell suspension was subcutaneously transplanted to the axillary region of each nude mouse (CAnN.Cg-Foxnl^nu/CrlCrlj, female, 5 to 6 weeks old, purchased from Charles River Laboratories Japan Inc.). […] Administration of hFR2-14_H19/L1 was carried out 8, 11, 15, and 18 days after transplantation, and administration of Ki23057 was carried out 8, 9, 10, 11, 15, 16, 17, and 18 days after transplantation. The major axis (mm) and minor axis (mm) of the tumor were measured over time using an electronic digital caliper (manufactured by Mitsutoyo Corp.). The tumor volume was calculated according to the following expression: Tumor volume (mm^3)=½×[Major axis of the tumor]×[Minor axis of the tumor]×[Minor axis of the tumor]
The antitumor effect was evaluated on the basis of the percentage of tumor growth inhibition (TGI %) at 21 days after transplantation (3 days after final administration) and 32 days after transplantation (final assay day) according to the following expression: TGI (%)=(1−A/B)×100

Structure (SMILES)	number of CR individuals among 9 mice at 21 days after transplantation ([1]; administered alone, hFR2-14_H19/L1 20 mg/kg)	TGI at 21 days after transplantation (final assay day) ([1]; hFR2-14_H19/L1 20 mg/kg intraperitoneally, AZD4547 3 mg/kg orally) [%]	number of the antigen FGFR2 on cell surface (SNU-16 cells)	TGI at 21 days after transplantation ([2]; Ki23057 5 mg/kg orally) [%]	TGI at 32 days after transplantation (final assay day) ([2]; Ki23057 5 mg/kg orally) [%]	TGI at 21 days after transplantation ([2]; Ki23057 20 mg/kg orally) [%]	TGI at 32 days after transplantation (final assay day) ([2]; Ki23057 20 mg/kg orally) [%]
COc1cc(CCc2cc(NC(=O)c3ccc(N4C[C@@H](C)N[C@@H](C)C4)cc3)n[nH]2)cc(OC)c1 [AZD4547, N-(5-(3,5-dimethoxyphenethyl)-1H-pyrazol-3-yl)-4-((3S,5R)-3,5-dimethylpiperazin-1-yl)benzamide, reference compound]	0	24	–	–	–	–	–
COc1cc2c(Oc3ccc(Nc4ccc(C(C)(C)C)cc4)cc3)ccnc2cc1OCCNCCO [Ki23057, 2-((2-((4-(4-((4-(tert-butyl)phenyl)amino)phenoxy)-6-methoxyquinolin-7-yl)oxy)ethyl)amino)ethanol]	–	–	elevated; also recorded: increased	7	1	29	−14
